Where two headings read alike, the source gives them in different places. Each block holds one substance with its values, some of them ahead of it. Where no end group is shown, it is not given here.
Legend:
[1] = tested on: chick chorioallantoic membrane (CAM) angiogenesis; experiment: Chick chorioallantoic membrane (CAM) angiogenesis assay; format: in vivo, chicken; settings: for Angiogenic response (% inhibition): relative to control gels, mean ± SD; for activity in the CAM assay: in vivo
Experimental: Fertilized Leghorn chicken eggs were obtained from Ramona Duck farm (Westminster, Calif.). At day 3 of development, the embryos were placed on 100 mm petri dishes. Assays were performed as previously described (Iruela-Arispe et al., 1999). […] Peptides were filtered on Centricon P100 prior to their analysis on the CAM assays to eliminate traces of endotoxin. Pellets were applied to the outer ⅓ of the CAM, and the assay was performed for 24 h. Detection of capillary growth was done by injection of FITC-dextran in the bloodstream and observation of the pellets under a fluorescent inverted microscope. Positive controls (growth factors and vehicle), as well as negative controls (vehicle alone) were placed in the same CAM and used as reference of 100% stimulation or baseline inhibition (0%), and response to the peptides was determined according to these internal controls. Assays were performed in duplicate in each CAM and in four independent CAMs (total of 8 pellets).

BAE cells [2] = settings: added in solution
Experimental: (§5) Briefly, 100 μl of a 5×10^4 cell/ml suspension of BAE cells were seeded in triplicate into 96 well tissue culture plate in DMEM medium containing 1% FCS, 10 ng/ml of FGF2 and peptides at 1-40 μM concentrations. Cells were incubated for 72 h, and proliferation was measured using the Celltiter tetrazolium assay (Promega). […] Proliferation was determined at 72 h, and is presented as a percent of the control, mean±S.D., n=3 for experimental points and n=6 for control. […] FIG. 19E: HDME cell proliferation in MCDB growth medium with 5% FCS was determined in the presence of 10 ng/ml FGF2 and the indicated concentrations of TSP1 added in the medium (Δ) or immobilized on the substrate (●) or in wells coated with the indicated concentrations of peptide 678 (●).
(§6) Cell proliferation was measured using the Cell-Titer colorimetric assay (Promega) as previously described (Vogel et al., 1993). A 100 μl volume of BAE cell suspension at 50,000 cells/ml in DMEM containing 1% FBS and supplemented with 10 ng/ml FGF2 was plated in triplicate in 96 well tissue culture plates either in the presence of peptides in solution or in wells that were pre-coated with 100 μl of the peptides at 40° C. overnight and aspirated just before adding cells. Cells were grown for 72 hours at 37° C. in a humidified incubator with 5% CO2. […] HDME cell proliferation was measured in MCDB growth medium without heparin, VEGF, or FGF2.

OH1 SCLC cells = format: cell-based, human; settings: soluble
Experimental: Net, proliferation was determined by the CellTiter assay (Promega) and is presented as mean±SD, n=3. […] The cells were fixed and photographed using Nomarski optics. Bar=100 μm. […] Panel E: α3β1 Integrin ligands cooperate with EGF to inhibit OH1 cell proliferation. […] Net proliferation is presented as a percent of the -EGF control (mean±SD, n=3 for treated groups and n=6 for control groups).
Proteins and peptides were immobilized on Nunc Maxisorp 96 well plates by overnight incubation with the proteins or peptides dissolved in 50 μl of sterile Dulbecco's PBS. The supernatant fluid was removed, and the wells were incubated for 30 min. in DPBS containing 1% BSA. OH1 cells (1×10^4/well) were added in RPMI containing 15% FCS and incubated for 72 h at 37° in 5% CO2. For assessing inhibition by soluble proteins or peptides, OH1 cells were grown in suspension in Nunclon 96 well tissue culture plates using the same medium.

[3] = tested on: MDA-MB-435 breast carcinoma cells; experiment: Inhibition of MDA-MB-435 cell adhesion to immobilized peptide 678 (microscopic adhesion assay); format: cell-based, human
Experimental: (§1) Adhesion assays of cells other than small cell lung carcinoma (SCLC)-Adhesion was measured on polystyrene or glass substrates coated with peptides or proteins as previously described (Guo et al., 1992). Peptides dissolved in PBS at 0.4 to 50 μM were incubated in polystyrene microliter plate wells overnight at 4° C. The wells were washed 3 times with distilled water. Adsorbed peptide was quantified using the BCA assay (Pierce Chemical) measuring absorbance at 570 and 630 nm as described by the supplier's protocol. The assay for adsorption was calibrated using purified peptide in solution as a standard. After blocking with 1% BSA in Dulbecco's PBS, adhesion assays were performed by adding cells suspended in DMEM (BAE cells) or medium 199 (human cells) containing 1 mg/ml BSA. Cell attachment and spreading was quantified microscopically.

BAE cells [4] = tested on: BAE cells
Experimental: Direct adhesion of BAE cells to the adsorbed peptides or uncoated substrate (control) are presented as mean±SD, n=3. […] Two flasks of BAE cells were grown to confluence. One flask was harvested and replated in fresh medium at 25% confluency. Fresh medium was added at the same time to the second flask. After 16 h, cells from both flasks were dissociated using EDTA and adhesion was measured on substrates coated with 40 μg/ml TSP1, 10 μg/ml vitronectin, 20 μg/ml plasma fibronectin, or 5 μg/ml type I collagen. The percent spread cells after 60 min is presented as mean±SD, n=3 for a representative experiment.

MDA-MB-435 cells = experiment: MDA-MB-435 cell chemotaxis in modified Boyden chambers; format: cell-based, human
Experimental: FIGS. 10A and 10B display the measurement of MDA-MB-435 cell chemotaxis. Panel A: Dose-dependence for stimulation of MDA-MB-435 cell motility by peptide 678 added to the lower well of a modified Boyden chamber. Cells migrated to the lower surface of an 8 μm pore polycarbonate filter were quantified microscopically after 7 h, mean±SD, n=3 for a representative experiment. […] Chemotaxis of untreated cells (striped bars) or cells treated with 10 nM IGF1 in the upper chamber (solid bars) was determined after 7 h and is presented as mean±S.D., n=3.

BAE cells [5] = experiment: Scratch wound repair of BAE cells; format: cell-based, bovine; settings: cells arrested using 5-fluorouracil; 24 h
Experimental: BAE cells were seeded at a density of 2×10^5 cells/well of 6 well tissue culture plates in complete growth medium supplemented with 10% FBS. After the cells formed a confluent cobblestone, cells were arrested using 10 μg/ml 5-fluorouracil for 48 h. Scrape wounds of 2 mm, width were made in the wells, and the cells were further incubated with medium containing 10% FBS, 10 μg/ml 5 fluorouracil and peptides 678, 709, or 690. Measurements of the distance between the wound margins were taken at 0 and 24 h, and the net migration is expressed as mean±SEM for triplicates.
The in vitro wound healing assay used was a slight modification of that described by Joyce et al. (Joyce et al., 1989). A confluent monolayer of BAE cells pretreated with 10 μg/ml 5-fluorouracil for […] were used in this assay. […] Mitosis of the BAE cells in the monolayers was inhibited by addition of 5-fluorouracil, so that the rate of wound closure was due solely to the migration of cells into the wound sites. The distances between the wound margins were measured as soon as the wound was made and 24 hours later using a grid incorporated into the eye piece of the microscope. All data represent the results obtained from three independent scratch wounds for each peptide tested.

HUVEC = HUVEC spreading on coated substrates; format: cell-based, human; settings: data not shown
Experimental: FIGS. 14A, 14B and 14C display α3β1 and αvβ3 integrin-mediated spreading of endothelial cells on thrombospondin-1. […] Results are expressed as percent of the response for untreated cells, mean±S.D., n=3.
as §1

HDME cells [6] = experiment: HDME cell spreading on coated substrates; format: cell-based, human
Experimental: Spreading was determined microscopically for cells with no additions, in the presence of 10 μM peptide 678, or in the presence of 30 μM of the control peptide 690. Results are presented as mean±SD, n=3. […] The percent spread cells was determined at 60 min.
as §1

H345 SCLC cells = experiment: SCLC cell adhesion to extracellular matrix proteins, H345; format: cell-based, human
Experimental: (§2) For adhesion assays of SCLC, these cells were washed once with RPMI 1640 and centrifuged at 400×g for 3 min. The pellet was suspended in 2.5 mM EDTA in PBS, pH 7.4 and incubated for 10 min at 37° C. After trituration three times and centrifugation, the cells were resuspended in RPMI 1640 containing 0.1% BSA (Sigma Co. St Louis, Mo.).
(§3) Adhesion of SCLC cells to extracellular matrix proteins. Extracellular matrix proteins or peptides in Dulbecco's PBS were adsorbed onto polystyrene by incubating overnight at 4° C. […] The supernatant fluid was removed, and the dishes were incubated with Tris-gelatin (ICN) (50 mM Tris-HCl, 110 mM NaCl, 5 mM CaCl2, 0.1 mM phenylmethylsulfonyl fluoride, 0.2% gelatin and 0.02% NaN3, pH 7.8) or Dulbeccos PBS with 1% BSA, as indicated, for 30 min to minimize nonspecific adhesion. The disks were washed twice with cold PBS, pH 7.2 and overlayed with dissociated SCLC cells prepared as described above at a density of 2.5×10^5/cm^2.
(§4) For inhibition studies with SCLC cells, inhibitors or antibodies were added and incubated with SCLC cells at the indicated concentrations. After incubation for 60-90 min at 37° C., the disks were washed by dipping six times in PBS, pH 7.2, fixed with 1% glutaraldehyde in PBS, pH 7.2, and stained with Diff-Quik. Attached cells were counted microscopically.

N417 SCLC cells = experiment: SCLC cell adhesion to extracellular matrix proteins, N417; format: cell-based, human
Experimental: as §2, §3, §4

HDME cells [7] = experiment: HDME cell proliferation; format: cell-based, human
Experimental: as §5, §6

H69 SCLC cells = experiment: SCLC cell adhesion to extracellular matrix proteins, H69; format: cell-based, human
Experimental: as §2, §3, §4

[8] = Table 3, 5 μM peptide 678, read-out: IC50 (μM), inhibition of MDA-MB-435 cell adhesion to immobilized peptide 678
[9] = microscopic adhesion assay, polystyrene coated with 5 μM peptide 678, peptides in solution, read-out: Inhibition of peptide 678 (IC50)
[10] = cells harvested from a confluent monolayer

IC50 [3, 8]: > 300 µM | IC50 [3, 9]: > 300 µM
Substance: FQGVLQAVRFVF [Peptide 686]
Angiogenic response (% inhibition) ([1]; 5 μM peptide): 3 ± 4% | Angiogenic response (% inhibition) ([1]; 10 μM peptide): 4 ± 6% | Angiogenic response (% inhibition) ([1]; 20 μM peptide): 15 ± 7% | activity in the CAM assay [1]: reduced activity | inhibition of BAE cell proliferation (BAE cells [2]): inactive | inhibition of OH1 cell proliferation (OH1 SCLC cells): inactive

IC50 [3, 8]: > 300 µM | IC50 [3, 9]: > 300 µM
Substance: FQGVLQNVAFVF [Peptide 690]
inhibition of density-dependent BAE spreading on intact TSP1 and the TSP1 peptide (BAE cells [4]; peptide added in solution): not significantly inhibited | endothelial cell attachment on immobilized peptide (BAE cells [4]; peptides adsorbed at 10 μM (FIG. 11A)): not | Angiogenic response (% inhibition) ([1]; 5 μM peptide): 3 ± 3% | Angiogenic response (% inhibition) ([1]; 10 μM peptide): 5 ± 3% | Angiogenic response (% inhibition) ([1]; 20 μM peptide): 2 ± 5% | activity in the CAM assay [1]: inactive | stimulation of chemotaxis (MDA-MB-435 cells): inactive | inhibition of BAE cell migration into the wound (BAE cells [5]): did not inhibit

Substance: TSP1: calcium replete thrombospondin-1 purified from human platelets
percent spread BAE cells on substrate (BAE cells [4]; [10]): less than 10% | percent spread HUVEC on immobilized substrate (HUVEC; confluent cells): 41±5% | percent spread HUVEC on immobilized substrate (HUVEC; sparse cultures): 46±7% | percent spread HDME cells on immobilized substrate (HDME cells [6]; cells from sparse culture): 29% | percent spread HDME cells on immobilized substrate (HDME cells [6]; [10]): 6% | SCLC cell adhesion (H345 SCLC cells; 6.2 μg/ml): 1 ± 1 cells/mm2 | SCLC cell adhesion (H345 SCLC cells; 12.5 μg/ml): 7 ± 1 cells/mm2 | SCLC cell adhesion (H345 SCLC cells; 25 μg/ml): 124 ± 17 cells/mm2 | SCLC cell adhesion (H345 SCLC cells; 50 μg/ml): 165 ± 6 cells/mm2 | SCLC cell adhesion (N417 SCLC cells; 6.2 μg/ml): 15 ± 2 cells/mm2 | SCLC cell adhesion (N417 SCLC cells; 12.5 μg/ml): 30 ± 4 cells/mm2 | SCLC cell adhesion (N417 SCLC cells; 25 μg/ml): 48 ± 4 cells/mm2 | SCLC cell adhesion (N417 SCLC cells; 50 μg/ml): 55 ± 10 cells/mm2 | HDME cell proliferation after plating on immobilized substance (HDME cells [7]): enhancement | SCLC cell adhesion (H69 SCLC cells; 12.5 μg/ml): 46 ± 8 cells/mm2 | SCLC cell adhesion (H69 SCLC cells; 25 μg/ml): 94 ± 6 cells/mm2 | SCLC cell adhesion (H69 SCLC cells; 50 μg/ml): 110 ± 14 cells/mm2 | SCLC cell adhesion (H69 SCLC cells; substrate coated at 6.2 μg/ml, mean ± S.D., n = 3): 6 ± 1 cells/mm2

Substance: ri-FQGVLQNVRFVF [Peptide 709]
Angiogenic response (% inhibition) ([1]; 5 μM peptide): 5 ± 4% | Angiogenic response (% inhibition) ([1]; 10 μM peptide): 25 ± 13% | Angiogenic response (% inhibition) ([1]; 20 μM peptide): 39 ± 13% | activity in the CAM assay [1]: enhanced activity | inhibition of BAE cell migration into the wound (BAE cells [5]): dose-dependent inhibitor
